Patent US20240252668A1, “ANTIBODY DRUG CONJUGATES AND METHODS FOR MAKING THEREOF” (Novartis AG, priority 2021, published 2024)
Where two headings read alike, the source gives them in different places. Starred links: 1 amine or outer side, 2 acyl side, 3 side chain; linkers in the order of their positions; H or OH if unused. Positions of bridges follow the written chain, without caps; N, C: chain ends. Non-standard residues stand in square brackets, D forms with d. Residues, ends and D or L forms follow the SMILES beside them. *: point of attachment. Leu(3R-OH,Nα-propionyl) = CCC(=O)N[C@H](C(=O)*)[C@H](O)C(C)C; X1 = CC(C)[C@@H](O[*:3])[C@H](N[*:1])C(=O)[*:2]; NMeT = CN[C@H](C(=O)O)[C@@H](C)O; dPhLac = O=C(O)[C@H](O)Cc1ccccc1; X2 = CC(C)C=C(N[*:1])C(=O)[*:2]; NMeA = CN[C@@H](C)C(=O)O; NMeDha = C=C(NC)C(=O)O

Key:
[1] = tested on: MP41 uveal melanoma cell line (heterozygous GNA11 Q209L); assay: Cell proliferation assay (resazurin cell viability), MP41 cell line; type: cell-based
Source text: (§1) Cell Proliferation Assays with Chromodepsins (compounds (A1) and 2-15): Cell line descriptions: 92.1—uveal melanoma cell line, derived from primary tumor, harboring heterozygous GNAQ Q209L mutation. Purchased from Sigma Aldrich. MP41 (CRL-3297) -uveal melanoma cell line, derived from primary tumor, harboring heterozygous GNA11 Q209L mutation. Purchased from ATCC. A375—skin melanoma cell line, harboring homozygous BRAF V600E mutation. Origin: Cancer Cell Line Encyclopedia (CCLE). SK-MEL-30—skin melanoma cell line, harboring heterozygous NRAS Q61K mutation. Origin: CCLE.
(§2) Cells were cultured in 96-well plates in a total volume of 100 μL at 37° C., 5% CO2 and 95% relative humidity. All cell lines were cultured in RPMI Medium (RPMI 1640 w/o L-glutamine, Bioconcept ref. 1-41F01-I) except A375, DMEM medium (DMEM high glucose (4.5 g/L), Bioconcept, ref. 1-26F01-I), and supplemented with 10% FCS (Bioconcept, ref. 2-01F30-I). Two to three thousand cells were seeded in 96-well plates per well the night before they were treated with compounds (concentration range: from 260 nM to 0.036 nM with ⅓ dilution steps; for 7 the concentration range was increased from 10000 nM to 1.52 nM with ⅓ dilution steps). Cell viability was measured by addition of 10 ul of resazurin per well after 96 hours of treatment. Results were analyzed and plotted using GraphPad Prism 9.0.1.

[2] = EPSA determination by supercritical fluid chromatography; type: physicochemical; settings: modified EPSA method, SFC
Protocol: […] by supercritical fluid chromatography: Compounds (A1) and 2-15 were tested by supercritical fluid chromatography (SFC) to determine their ESAPSA values. Samples were analyzed using a Chirex 3014 column ([…], 3×100 mm column, 100 Å pore size; Phenomenex. The starting conditions were 5% methanol containing 20 mM ammonium formate and 95% scCO2. The gradient was increased linearly to 60% methanol containing 20 mM ammonium formate in 4.5 min.

MDCK-LE monolayers = assay: Cell-based transwell assay with MDCK-low efflux monolayers (passive permeability); type: in vitro ADME; settings: MDCK-LE monolayers
Protocol: Cell-based transwell assays with MDCK-low efflux monolayers: Compounds (A1) and 2-15 were tested in MDCK cell sub-clones with low effluxt ransporter activity (MDCK-LE) in order to determine their passive permeability. The incubations were performed at a contract research organization as described previously.

[3] = tested on: SK-MEL-30 skin melanoma cell line (heterozygous NRAS Q61K); assay: Cell proliferation assay (resazurin cell viability), SK-MEL-30 cell line; type: cell-based
Source text: as §1, §2

[4] = tested on: A375 skin melanoma cell line (homozygous BRAF V600E); assay: Cell proliferation assay (resazurin cell viability), A375 cell line; type: cell-based
Source text: as §1, §2

[5] = Plasma incubation of compound (A1), human plasma, LC-MS/MS quantification; type: in vitro ADME; settings: formed in incubation of (A1) in human plasma, 37° C.
Protocol: Plasma incubations and sample preparation: Compound (A1) was spiked at 5.00 μg/mL in PBS and pooled mixed gender mouse (CD-1), cynomolgus monkey and human plasma. Samples were incubated on a Thermomixer (Eppendorf) at 37° C. while shaking at 650 rpm. Aliquots of 50 μL (n=3) were drawn from each incubation tube following 0, 0.5, 1, 2, 4, 8 and 24 h of incubation. 50 μL of sample was quenched with 200 μL of acetonitrile, containing both generic internal standards, glybenclamide and warfarin, at 62.5 ng/mL. Samples were briefly vortexed and centrifuged for 20 min at 4000 rpm and 4° C. 200 μL of the supernatant was transferred into a clean 800 μL 96-well sample collection plate.
Quantification by LC-MS/MS: LC-MS/MS analysis was conducted with a Shimadzu Nexera UPLC coupled to AB Sciex QTRAP 6500 using the SRM acquisition mode (3 μL injected). Samples were analyzed using a ACE 3° C.18-PFP (3 μM, 2.1×50 mm column) at a column temperature of 65° C. The starting conditions were 97% H20 containing 0.1% formic acid and 3% CH3CN containing 0.1% formic acid. Quantification of compound (A1) and 5 was performed by MS-MRM (electrospray in positive mode, ion spray voltage: 5000 V, source temperature: 500° C., curtain gas: 25 psig, nebulizer gas: 60 psig, turbo ion spray gas: 40 psig, mass range: low, resolution Q1/Q3: unit, collision gas: medium, dwell time: 12 msec). Separate calibration curves were established with calibration standards of compounds (A1) and 5 at concentrations of 10.0, 5.00, 2.50, 1.00, 0.500, 0.100, 0.050 and 0.010 μg/mL respectively. Peak integration and quantification was conducted with the AB Sciex Analyst software (v.1.7) using the Analyst Classic algorithm. […]

[6] = tested on: 92.1 uveal melanoma cell line (heterozygous GNAQ Q209L); assay: Cell proliferation assay (resazurin cell viability), 92.1 cell line; type: cell-based
Source text: as §1, §2

[7] = tested on: 92.1 and MP41 cell lines (GNAQ/GNA11 mutant uveal melanoma); assay: Cell proliferation assays, potency ranking over both uveal melanoma lines; type: cell-based; settings: 92.1 and MP41 cell lines
Source text: The selective antiproliferative profile of the chromodepsins against GNAQ/GNA11 mutant cell lines is confirmed by the lack of activity against the A375 and SK MEL 30 cell lines that are independent from GNAQ/GNA11 signaling. The potency ranking using the 92.1 and MP41 cell lines is in good agreement with the previously SAR studies. […] These findings are in line with a recent report from Voss et al., highlighting the importance of the “lipophilic anchors” of compound (A1) at the residues varied in compounds 2 and 3, in context of binding kinetics and prolonged residence time on the target proteins. The retained potency of compound 4 indicates a promising exit vector for potential synthetic or biosynthetic modifications of the scaffold. […] The linearized depsipeptides compounds 5-7 lack any antiproliferative activity. In this experimental setup, the cellular permeability of the compounds was a crucial factor contributing to the observed antiproliferative potency. Therefore, all compounds were characterized in a low efflux MCDK assay and determined their exposed polar surface areas (EPSA) in order to assess their passive cellular permeabilities. All macrocyclic chromodepsins that feature the N acyl Hle side chain show similar results concerning their % fraction absorbed (% FA; average ˜60% FA+20%) and EPSA values.
as §1, §2

[8] = MP41 (GNA11 Q209L), 96 hours of treatment, read-out: GI50 by cell line, MP41
[9] = MP41 cell line, average of Rep. 1 and 2, read-out: GI50 MP41 Average
[10] = MP41 cell line, replicate 1, read-out: GI50 MP41 Rep. 1
[11] = MP41 cell line, replicate 2, read-out: GI50 MP41 Rep. 2
[12] = SK-MEL-30 (GNAQ/11 wild type), 96 hours of treatment, read-out: GI50 by cell line, SK-MEL-30
[13] = SK-MEL-30 cell line, average of Rep. 1 and 2, read-out: GI50 SK-MEL-30 Average
[14] = SK-MEL-30 cell line, replicate 1, read-out: GI50 SK-MEL-30 Rep. 1
[15] = SK-MEL-30 cell line, replicate 2, read-out: GI50 SK-MEL-30 Rep. 2
[16] = A375 (GNAQ/11 wild type), 96 hours of treatment, read-out: GI50 by cell line, A375
[17] = A375 cell line, average of Rep. 1 and 2, read-out: GI50 A375 Average
[18] = A375 cell line, replicate 1, read-out: GI50 A375 Rep. 1
[19] = A375 cell line, replicate 2, read-out: GI50 A375 Rep. 2
[20] = 92.1 (GNAQ Q209L), 96 hours of treatment, read-out: GI50 by cell line, 92.1
[21] = 92.1 cell line, average of Rep. 1 and 2, read-out: GI50 92.1 Average
[22] = 92.1 cell line, replicate 1, read-out: GI50 92.1 Rep. 1
[23] = 92.1 cell line, replicate 2, read-out: GI50 92.1 Rep. 2

C=C(C(=O)N[C@@H](C)C(=O)N(C)[C@@H](C)C(=O)N[C@H](C(=O)N(C)[C@H](C(=O)O)[C@@H](C)OC)[C@H](OC(=O)[C@@H](NC(=O)CC)[C@H](O)C(C)C)C(C)C)N(C)C(=O)[C@@H](Cc1ccccc1)OC(=O)C(=CC(C)C)NC(C)=O [Compound 5] (Ac-[X2][dPhLac][NMeDha]A[NMeA][X1](Leu(3R-OH,Nα-propionyl))[NMeT](Me)-OH)
GI50 [1, 8]: > 260 nM | GI50 [1, 9]: > 260 nM | GI50 [1, 10]: > 260 nM | GI50 [1, 11]: > 260 nM | EPSA [2]: 229 A^2 | % Fraction absorbed (MDCK-LE monolayers): 4.2% | % Recovery (MDCK-LE monolayers): 86% | Papp A − B (MDCK-LE monolayers): 0.27 ×10⁻⁶ cm/s | GI50 [3, 12]: > 260 nM | GI50 [3, 13]: > 260 nM | GI50 [3, 14]: > 260 nM | GI50 [3, 15]: > 260 nM | GI50 [4, 16]: > 260 nM | GI50 [4, 17]: > 260 nM | GI50 [4, 18]: > 260 nM | GI50 [4, 19]: > 260 nM | Concentration of 5, Aliquot 1 ([5]; 0 h): BLQ | Concentration of 5, Aliquot 2 ([5]; 0 h): BLQ | Concentration of 5, Aliquot 3 ([5]; 0 h): BLQ | Concentration of 5, Aliquot 1 ([5]; 0.5 h): 61.3 ng/mL | Concentration of 5, Aliquot 2 ([5]; 0.5 h): 67.3 ng/mL | Concentration of 5, Aliquot 3 ([5]; 0.5 h): 67.1 ng/mL | Mean concentration of 5 ([5]; 0.5 h): 65.2 ng/mL | Concentration of 5, Aliquot 1 ([5]; 1 h): 117 ng/mL | Concentration of 5, Aliquot 2 ([5]; 1 h): 123 ng/mL | Concentration of 5, Aliquot 3 ([5]; 1 h): 142 ng/mL | Mean concentration of 5 ([5]; 1 h): 127 ng/mL | Concentration of 5, Aliquot 1 ([5]; 2 h): 255 ng/mL | Concentration of 5, Aliquot 2 ([5]; 2 h): 289 ng/mL | Concentration of 5, Aliquot 3 ([5]; 2 h): 317 ng/mL | Mean concentration of 5 ([5]; 2 h): 287 ng/mL | Concentration of 5, Aliquot 1 ([5]; 4 h): 615 ng/mL | Concentration of 5, Aliquot 2 ([5]; 4 h): 647 ng/mL | Concentration of 5, Aliquot 3 ([5]; 4 h): 677 ng/mL | Mean concentration of 5 ([5]; 4 h): 646 ng/mL | Concentration of 5, Aliquot 1 ([5]; 8 h): 1370 ng/mL | Concentration of 5, Aliquot 2 ([5]; 8 h): 1480 ng/mL | Concentration of 5, Aliquot 3 ([5]; 8 h): 1570 ng/mL | Mean concentration of 5 ([5]; 8 h): 1470 ng/mL | Concentration of 5, Aliquot 1 ([5]; 24 h): 3140 ng/mL | Concentration of 5, Aliquot 2 ([5]; 24 h): 2820 ng/mL | Concentration of 5, Aliquot 3 ([5]; 24 h): 3140 ng/mL | Mean concentration of 5 ([5]; 24 h): 3030 ng/mL | GI50 [6, 20]: > 260 nM | GI50 [6, 21]: > 260 nM | GI50 [6, 22]: > 260 nM | GI50 [6, 23]: > 260 nM

CCC(=O)N[C@H](C(=O)O[C@H](C(C)C)[C@@H]1NC(=O)[C@H](C)N(C)C(=O)[C@H](C)NC(=O)[C@H](C)N(C)C(=O)[C@@H](Cc2ccccc2)OC(=O)[C@@H](NC(C)=O)[C@@H](C(C)C)OC(=O)[C@H]([C@@H](C)OC)N(C)C1=O)[C@H](O)C(C)C [Compound 10] (Ac-[X1][dPhLac][NMeA]A[NMeA][X1](Leu(3R-OH,Nα-propionyl))[NMeT](Me); ester 1-C)
GI50 [1, 8]: 396 nM | GI50 [1, 9]: 396 nM | GI50 [1, 10]: 419 nM | GI50 [1, 11]: 372 nM | % Fraction absorbed (MDCK-LE monolayers): 37.6% | % Recovery (MDCK-LE monolayers): 77% | Papp A − B (MDCK-LE monolayers): 2.03 ×10⁻⁶ cm/s | GI50 [3, 12]: > 10000 nM | GI50 [3, 13]: > 10000 nM | GI50 [3, 14]: > 10000 nM | GI50 [3, 15]: > 10000 nM | loss of potency compared to compound (A1) (growth inhibition) [7]: 25-30 fold | GI50 [4, 16]: > 10000 nM | GI50 [4, 17]: > 10000 nM | GI50 [4, 18]: > 10000 nM | GI50 [4, 19]: > 10000 nM | GI50 [6, 20]: 607 nM | GI50 [6, 21]: 607 nM | GI50 [6, 22]: 760 nM | GI50 [6, 23]: 453 nM
